The values below come from ChEMBL document CHEMBL4613306, “BOPC1 Enantiomers Preparation and HuR Interaction Study. From Molecular Modeling to a Curious DEEP-STD NMR Application” (ACS Med Chem Lett, 2020).

SMILES strings stand for the structures. Activity calls are given as the source filed them. The rule behind the calls is not given here.

Test [1] has as its target ELAV-like protein 1 (Homo sapiens) (UniProt Q15717). Kind of test: Binding affinity to HuR (unknown origin) assessed as positive STD factor by measuring interaction of protons of ring B and its methoxy group with protein at 400 uM in 100% D2O buffer by DEEP-STD NMR analysis.
Test [2] shares this target. Briefly: Binding affinity to HuR (unknown origin) assessed as interaction of ring A and protons 5 and 3 with apolar residues and projection of protons 16 and 9-10 with polar residues of protein at 400 uM in H2O:D2O (90:10) buffer by DEEP-STD NMR analysis.
For test [3] the target is unchanged. Briefly: Binding affinity to HuR (unknown origin) assessed as negative STD factor by measuring interaction of protons 3, 9-10 and 16 with protein at 400 uM in 100% D2O buffer by DEEP-STD NMR analysis.
Test [4] has the same target. Briefly: Binding affinity to HuR (unknown origin) assessed as interaction of ring A and protons 16 with hydrophobic residues and projection of ring B and its methoxy group with polar residues of protein at 400 uM in H2O:D2O (90:10) buffer by DEEP-STD NMR analysis.

Sequence of ELAV-like protein 1 (Homo sapiens) (Q15717 whole entry): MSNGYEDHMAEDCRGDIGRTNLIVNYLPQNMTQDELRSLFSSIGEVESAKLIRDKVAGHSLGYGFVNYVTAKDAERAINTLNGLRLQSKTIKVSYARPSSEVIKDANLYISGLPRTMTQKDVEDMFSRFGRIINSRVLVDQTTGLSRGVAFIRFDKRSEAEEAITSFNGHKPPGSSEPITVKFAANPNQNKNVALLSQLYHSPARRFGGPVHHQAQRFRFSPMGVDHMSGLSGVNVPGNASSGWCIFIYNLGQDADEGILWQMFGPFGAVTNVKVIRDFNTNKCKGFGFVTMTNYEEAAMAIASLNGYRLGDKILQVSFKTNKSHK

For `COc1cc(OC)cc([C@@H]2[C@@H](C(=O)NCCNCc3ccccc3)CCC(=O)N2CC(C)C)c1`, the result in test [1] and in test [2] was Active.

For the compound `COc1cc(OC)cc([C@H]2[C@H](C(=O)NCCNCc3ccccc3)CCC(=O)N2CC(C)C)c1`, the result in test [3] and in test [4] was Active.
